Measurements as given in patent US20240327421A1 (Marquette University, priority 2017, published 2024).
Entries after “also recorded” stand apart in the source; their conditions may differ.

Key:
[1] = biological target: T1, Peroxisome Proliferator-Activated Receptor (PPARδ) (Homo sapiens, UniProt Q03181); assay: GeneBLAzer nuclear hormone receptor specificity assay, PPARδ; assay type: cell-based; settings: 0.25 to 25 μM; listed as ISP358-2
T1 sequence (Q03181 211-439 limits assumed): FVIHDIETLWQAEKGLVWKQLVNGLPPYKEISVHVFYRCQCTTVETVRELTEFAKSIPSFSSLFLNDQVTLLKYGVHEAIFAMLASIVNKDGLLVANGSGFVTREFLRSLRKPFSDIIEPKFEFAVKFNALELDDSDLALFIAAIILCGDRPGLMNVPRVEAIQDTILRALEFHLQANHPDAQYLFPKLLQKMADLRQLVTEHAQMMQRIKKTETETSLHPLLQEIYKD
Procedure: Nuclear Hormone Receptor Specificity Assay. Selectivity measurements were performed using the SelectScreen™ cell-based nuclear receptor profiling service from ThermoFisher (FIG. 3A). This is a FRET-based assay that uses GeneBLAzer™ technology. It detects ligand binding to and activation of a nuclear hormone receptor of interest (ligand binding domain; LBD) that is fused to a GAL4 DNA binding domain (DBD), which upon activation induces expression of beta-lactamase. The assay has a Z′≥0.5 in agonist mode. […]

CYP1A2 = biological target: T2, CYP1A2 (Homo sapiens, UniProt P05177); assay: P450-Glo CYP450 inhibition, CYP1A2; assay type: in vitro ADME; settings: highest concentration 62.6 μM; listed as ISP358-2
T2 construct: purchased Promega Corporation (Madison, WI)
T2 sequence (P05177 1-516): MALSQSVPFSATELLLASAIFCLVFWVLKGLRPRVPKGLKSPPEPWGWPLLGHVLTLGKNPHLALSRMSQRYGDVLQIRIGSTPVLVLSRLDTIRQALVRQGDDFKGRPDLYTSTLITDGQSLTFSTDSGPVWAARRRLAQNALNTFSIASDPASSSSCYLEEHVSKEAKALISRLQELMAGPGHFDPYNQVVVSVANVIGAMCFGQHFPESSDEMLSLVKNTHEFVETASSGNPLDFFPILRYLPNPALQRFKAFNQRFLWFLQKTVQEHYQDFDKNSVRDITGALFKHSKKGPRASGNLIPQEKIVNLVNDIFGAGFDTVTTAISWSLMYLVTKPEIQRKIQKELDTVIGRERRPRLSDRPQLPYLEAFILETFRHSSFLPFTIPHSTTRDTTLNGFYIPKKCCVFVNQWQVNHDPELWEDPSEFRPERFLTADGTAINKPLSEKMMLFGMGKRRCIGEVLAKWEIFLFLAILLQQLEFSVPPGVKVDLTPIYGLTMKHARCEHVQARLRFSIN
Procedure: In Vitro Druggability Assays-CYP450 Binding, hERG & Nephelometry. The P450-Glo™ Screening System from Promega Corporation (Madison, WI) was used to measure CYP450 (cytochrome P450) inhibition, as described in the kit instructions. Assays were run in 96-well white plates (Corning® 3912), and luminescence was measured on a SpectraMax M5 instrument (FIG. 6). The luminescence signal is proportional to the amount of luciferin product formed by the CYP reaction. Compounds were prepared in DMSO, then an eight-step 1:2 dilution series was made in DMSO. […] After adding the relevant Cytochrome P450 enzyme, the plate was incubated at 37° C. for 10 minutes to allow components to come to temperature. Next, the NADPH regeneration system was added to activate the reaction on a luminogenic P450-GloTM substrate, and incubated at 37° C. for 10-30 min, according to kit instructions for each CYP enzyme. The enzyme reaction was stopped by the addition of Luciferin Detection Reagent and luminescence of the plate was read in a Spectramax M5 (Molecular Devices) after a 20 min incubation at room temperature. Data were normalized to positive controls (α-naphthoflavone for CYP1A2, sulfaphenazole for CYP2C9, quinidine for CYP2D6, and ketoconazole for CYP3A4). Data analysis was with Prism software, as described above.

Q: Which “agonist activity, PPARδ” value [1] does the source give for OC[C@H]1CC[C@H](c2ccc(O)cc2)CC1 [Compound 16] here?
A: The value was “not an agonist; also recorded: no significant off-target activity”.

Q: What about the CYP1A2 inhibition (CYP1A2) of the same molecule?
A: The CYP1A2 inhibition was “no significant inhibition”.
